Legend:
mRNA = mRNA capping rate by RNase H cleavage and LC-MS; format: biochemical; conditions: ratio of capped and uncapped mRNA
Description: The mRNA molecules with different Cap structures obtained in Example 1 were subjected to enzymatic cleavage, and the ratio of capped and uncapped mRNA molecules could be determined in a liquid chromatography-mass spectrometry analysis experiment.
1. Concentrate the beads using a magnet, aspirate the supernatant storage solution, and add an equal volume of 0.1 M NaOH +0.05 M NaCl;
2. Aspirate the supernatant and resuspend the beads with an equal volume of 0.1 M NaCl, keep the concentration constant;
3. Anneal mRNA and cleavage tags, configure the following reaction system;
Gradient annealing: 95° C. 5 min
4. Combining cleavage tags with beads • Beads were centrifuged at 15,000 g for 5 min, and the supernatant was removed, then 120 μl of annealed mRNA and tags were added and incubated for 30 min at room temperature, during which time they were gently shaken to ensure adequate binding.
5. Enzyme cleavage using RNase H; • Add 10 μl RNase H and incubate at 37° C. for 3 h. Precipitate the beads with magnet and discard the supernatant. • Add 100 μl washing buffer, mix thoroughly, magnet precipitate for 2 min, and discard the supernatant. Repeat 3 times. • Wash with DI water for 3 times.
6. Hydrolysis with RppH; • Use 10 units RppH in nebuffer 2 to hydrolyze at room temperature for 1 h.
DI water was aspirated, 100 μl of 75% ethanol preheated to 80° C. was added, incubat for 3 min, and magnet precipitat for 3 min. The supernatant was taken, followed by evaporating, and centrifuge for 45 min to a volume of 10 μl. Finally, the sample was resuspended in 50 μl of […] EDTA/1% MeOH and left for LC-MS analysis.
9. the mRNA capping rate of different Cap analogs synthesized was analyzed with LC-MS.

T7 Enzyme Mix = T7 Enzyme Mix (Escherichia phage T7, UniProt P00573); experiment: In vitro transcription mRNA synthesis with cap analog, reaction yield; format: biochemical; conditions: per ml transcription reaction system; 37° C. for 6 h; LiCl purification
Method: 1. Before synthesizing mRNA, linearize the plasmid with Notl, digested at […] overnight;
2. Extract with DNA template;
React at 37° C. for 6 h. Digest with TURBO DNase for 15 min.
4. Purify the transcription products using LiCl solution and calculate the reaction yields.

[1] = test system: TLR3, TLR7, TLR8 and RIG-1; experiment: Intracellular immunogenicity of capped mRNA by RNA immunoprecipitation and quantitative PCR; format: cell-based; conditions: relative to ARCA; Human-derived PBMC cells, 5 μg mRNA, Lipofectamine 2000, 24 h
Method: Experimental methods: the intracellular immunoproteins TLR3, TLR7, TLR8 and RIG-1 were immunoprecipitated together with their bound RNAs by RNA immunoprecipitation, and finally these mRNAs were identified by real-time quantitative PCR, and their relative abundance was proportional to their immunogenicity.
The cells were collected by trypsin digestion 24 h later and resuspended in PBS, centrifuged, and collected.
Fixative was added to the cells, and after 15 minutes glycine was added for termination of fixation, followed by centrifugation to collect the cells. Cells were resuspended by adding lysate, incubated on ice at 4° C. for 30 min, centrifuged at 2400 g for 10 min, and the supernatant was collected.
TLR3, TLR7, TLR8 and RIG-1 antibodies (2-10 μg) were added to the supernatant (6-10 mg) followed by gentle incubation at 4° C. for 2 hours. Protein AIG beads (40 μL) were then added to them and incubated gently for 1 h at 4° C.
Centrifuge at 2500 rpm for 30 seconds with precipitated magnetic beads and remove the supernatant. Resuspend the beads in 500 μL of RIP buffer. Wash in RIP buffer a total of three times, followed by one wash in PBS.
Resuspend magnetic beads in TRIzol RNA Extraction Reagent (1 mL) and isolate co-precipitated RNA, and then elute RNA using nuclease-free water (20 μL).
6. Reverse transcribe (RT) the RNA into cDNA and design primers according to the mRNA sequence for quantitative PCR analysis. mRNA immunogenicity is proportional to the number of mRNA copies precipitated by magnetic beads.

Chain of T7 Enzyme Mix (P00573 whole entry): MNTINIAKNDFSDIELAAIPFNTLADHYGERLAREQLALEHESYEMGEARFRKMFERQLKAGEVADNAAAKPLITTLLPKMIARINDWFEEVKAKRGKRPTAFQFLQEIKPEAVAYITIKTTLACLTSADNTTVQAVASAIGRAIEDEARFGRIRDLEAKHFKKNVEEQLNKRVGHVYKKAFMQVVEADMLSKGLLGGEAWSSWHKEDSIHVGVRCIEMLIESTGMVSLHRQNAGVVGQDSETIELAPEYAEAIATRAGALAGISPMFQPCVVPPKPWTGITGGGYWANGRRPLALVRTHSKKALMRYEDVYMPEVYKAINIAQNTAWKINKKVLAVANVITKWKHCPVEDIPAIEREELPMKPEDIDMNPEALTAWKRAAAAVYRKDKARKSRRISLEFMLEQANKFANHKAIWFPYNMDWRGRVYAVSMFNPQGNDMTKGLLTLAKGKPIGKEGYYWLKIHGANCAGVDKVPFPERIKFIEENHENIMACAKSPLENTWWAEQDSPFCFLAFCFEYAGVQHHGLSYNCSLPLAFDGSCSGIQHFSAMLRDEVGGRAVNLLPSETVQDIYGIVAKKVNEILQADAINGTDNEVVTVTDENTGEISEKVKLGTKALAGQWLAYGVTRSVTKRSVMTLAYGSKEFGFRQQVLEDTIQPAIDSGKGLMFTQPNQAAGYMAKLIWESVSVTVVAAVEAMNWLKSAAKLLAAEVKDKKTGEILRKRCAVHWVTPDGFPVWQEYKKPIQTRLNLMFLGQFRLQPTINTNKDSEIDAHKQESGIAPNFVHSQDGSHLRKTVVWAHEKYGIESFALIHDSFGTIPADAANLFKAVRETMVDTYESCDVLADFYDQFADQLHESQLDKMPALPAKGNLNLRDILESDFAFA

## CO[C@@H]1[C@H](O)[C@@H](COP(=O)(O)O[C@H]2[C@@H](OC)[C@H](n3cnc4c(=O)[nH]c(N)nc43)O[C@@H]2COP(=O)(O)OP(=O)(O)OP(=O)([O-])OC[C@H]2O[C@@H](n3c[n+](C)c4c(=O)[nH]c(N)nc43)[C@H](O)[C@@H]2OC)O[C@H]1n1ccc(=O)[nH]c1=O [Cap analog 30, 3-O-Me-m7G(5′)ppp(5′)(2′OMeG)p(2′OMeU)]
mRNA
  mRNA capping rates when using different Cap structures: 94.8%
T7 Enzyme Mix
  Mass of final product obtained from 1 ml mRNA synthesis reaction system: 5.3 mg
[1]
  Intracellular immunogenicity of mRNA when using different Cap structures: 0.31

## CO[C@@H]1[C@H](O)[C@@H](COP(=O)(O)O[C@H]2[C@@H](OC)[C@H](n3cnc4c(N)ncnc43)O[C@@H]2COP(=O)(O)OP(=O)(O)OP(=O)([O-])OC[C@H]2O[C@@H](n3c[n+](C)c4c(=O)[nH]c(N)nc43)[C@H](O)[C@@H]2OC)O[C@H]1n1ccc(=O)[nH]c1=O [Cap analog 29, 3-O-Me-m7G(5′)ppp(5′)(2′OMeA)p(2′OMeU)]
mRNA
  mRNA capping rates when using different Cap structures: 94.93%
T7 Enzyme Mix
  Mass of final product obtained from 1 ml mRNA synthesis reaction system: 5.3 mg
[1]
  Intracellular immunogenicity of mRNA when using different Cap structures: 0.27

## CO[C@@H]1[C@H](O)[C@@H](COP(=O)(O)O[C@H]2[C@@H](OC)[C@H](n3cnc4c(=O)[nH]c(N)nc43)O[C@@H]2COP(=O)(O)OP(=O)(O)OP(=O)([O-])OC[C@H]2O[C@@H](n3c[n+](C)c4c(=O)[nH]c(N)nc43)[C@H](O)[C@@H]2O)O[C@H]1n1cnc2c(N)ncnc21 [Cap analog 6, m7G(5′)ppp(5′)(2′OMeG)p(2′OMeA)]
mRNA
  mRNA capping rates when using different Cap structures: 94.65%
T7 Enzyme Mix
  Mass of final product obtained from 1 ml mRNA synthesis reaction system: 5.1 mg
[1]
  Intracellular immunogenicity of mRNA when using different Cap structures: 0.38

## CO[C@@H]1[C@H](O)[C@@H](COP(=O)(O)O[C@H]2[C@@H](OC)[C@H](n3ccc(=O)[nH]c3=O)O[C@@H]2COP(=O)(O)OP(=O)(O)OP(=O)([O-])OC[C@H]2O[C@@H](n3c[n+](C)c4c(=O)[nH]c(N)nc43)[C@H](O)[C@@H]2OC)O[C@H]1n1ccc(N)nc1=O [Cap analog 28, 3-O-Me-m7G(5′)ppp(5′)(2′OMeU)p(2′OMeC)]
mRNA
  mRNA capping rates when using different Cap structures: 94.62%
T7 Enzyme Mix
  Mass of final product obtained from 1 ml mRNA synthesis reaction system: 4.8 mg
[1]
  Intracellular immunogenicity of mRNA when using different Cap structures: 0.52

## CO[C@@H]1[C@H](O)[C@@H](COP(=O)(O)O[C@H]2[C@@H](OC)[C@H](n3cnc4c(N)ncnc43)O[C@@H]2COP(=O)(O)OP(=O)(O)OP(=O)([O-])OC[C@H]2O[C@@H](n3c[n+](C)c4c(=O)[nH]c(N)nc43)[C@H](O)[C@@H]2OC)O[C@H]1n1ccc(N)nc1=O [Cap analog 25, 3-O-Me-m7G(5′)ppp(5′)(2′OMeA)p(2′OMeC)]
mRNA
  mRNA capping rates when using different Cap structures: 94.8%
T7 Enzyme Mix
  Mass of final product obtained from 1 ml mRNA synthesis reaction system: 4.1 mg
[1]
  Intracellular immunogenicity of mRNA when using different Cap structures: 0.29

## CO[C@@H]1[C@H](O)[C@@H](COP(=O)(O)O[C@H]2[C@@H](OC)[C@H](n3ccc(=O)[nH]c3=O)O[C@@H]2COP(=O)(O)OP(=O)(O)OP(=O)([O-])OC[C@H]2O[C@@H](n3c[n+](C)c4c(=O)[nH]c(N)nc43)[C@H](O)[C@@H]2O)O[C@H]1n1ccc(=O)[nH]c1=O [Cap analog 16, m7G(5′)ppp(5′)(2′OMeU)p(2′OMeU)]
mRNA
  mRNA capping rates when using different Cap structures: 94.84%
T7 Enzyme Mix
  Mass of final product obtained from 1 ml mRNA synthesis reaction system: 4.2 mg
[1]
  Intracellular immunogenicity of mRNA when using different Cap structures: 0.48

## CO[C@@H]1[C@H](OP(=O)(O)OC[C@H]2O[C@@H](n3cnc4c(=O)[nH]c(N)nc43)[C@H](OC)[C@@H]2O)[C@@H](COP(=O)(O)OP(=O)(O)OP(=O)([O-])OC[C@H]2O[C@@H](n3c[n+](C)c4c(=O)[nH]c(N)nc43)[C@H](O)[C@@H]2O)O[C@H]1n1ccc(=O)[nH]c1=O [Cap analog 4, m7G(5′)ppp(5′)(2′OMeU)p(2′OMeG)]
mRNA
  mRNA capping rates when using different Cap structures: 94.72%
T7 Enzyme Mix
  Mass of final product obtained from 1 ml mRNA synthesis reaction system: 4.7 mg
[1]
  Intracellular immunogenicity of mRNA when using different Cap structures: 0.48

## CO[C@@H]1[C@H](OP(=O)(O)OC[C@H]2O[C@@H](n3cnc4c(N)ncnc43)[C@H](OC)[C@@H]2O)[C@@H](COP(=O)(O)OP(=O)(O)OP(=O)([O-])OC[C@H]2O[C@@H](n3c[n+](C)c4c(=O)[nH]c(N)nc43)[C@H](O)[C@@H]2OC)O[C@H]1n1ccc(N)nc1=O [Cap analog 23, 3-O-Me-m7G(5′)ppp(5′)(2′OMeC)p(2′OMeA)]
mRNA
  mRNA capping rates when using different Cap structures: 94.65%
T7 Enzyme Mix
  Mass of final product obtained from 1 ml mRNA synthesis reaction system: 4.5 mg
[1]
  Intracellular immunogenicity of mRNA when using different Cap structures: 0.41

## CO[C@@H]1[C@H](O)[C@@H](COP(=O)(O)O[C@H]2[C@@H](OC)[C@H](n3ccc(=O)[nH]c3=O)O[C@@H]2COP(=O)(O)OP(=O)(O)OP(=O)([O-])OC[C@H]2O[C@@H](n3c[n+](C)c4c(=O)[nH]c(N)nc43)[C@H](O)[C@@H]2OC)O[C@H]1n1ccc(=O)[nH]c1=O [Cap analog 32, 3-O-Me-m7G(5′)ppp(5′)(2′OMeU)p(2′OMeU)]
mRNA
  mRNA capping rates when using different Cap structures: 94.66%
T7 Enzyme Mix
  Mass of final product obtained from 1 ml mRNA synthesis reaction system: 4.3 mg
[1]
  Intracellular immunogenicity of mRNA when using different Cap structures: 0.3

## CO[C@@H]1[C@H](O)[C@@H](COP(=O)(O)O[C@H]2[C@@H](OC)[C@H](n3cnc4c(N)ncnc43)O[C@@H]2COP(=O)(O)OP(=O)(O)OP(=O)([O-])OC[C@H]2O[C@@H](n3c[n+](C)c4c(=O)[nH]c(N)nc43)[C@H](O)[C@@H]2O)O[C@H]1n1ccc(N)nc1=O [Cap analog 9, m7G(5′)ppp(5′)(2′OMeA)p(2′OMeC)]
mRNA
  mRNA capping rates when using different Cap structures: 94.73%
T7 Enzyme Mix
  Mass of final product obtained from 1 ml mRNA synthesis reaction system: 4.8 mg
[1]
  Intracellular immunogenicity of mRNA when using different Cap structures: 0.4

## CO[C@@H]1[C@H](OP(=O)(O)OC[C@H]2O[C@@H](n3cnc4c(N)ncnc43)[C@H](OC)[C@@H]2O)[C@@H](COP(=O)(O)OP(=O)(O)OP(=O)([O-])OC[C@H]2O[C@@H](n3c[n+](C)c4c(=O)[nH]c(N)nc43)[C@H](O)[C@@H]2OC)O[C@H]1n1ccc(=O)[nH]c1=O [Cap analog 24, 3-O-Me-m7G(5′)ppp(5′)(2′OMeU)p(2′OMeA)]
mRNA
  mRNA capping rates when using different Cap structures: 94.72%
T7 Enzyme Mix
  Mass of final product obtained from 1 ml mRNA synthesis reaction system: 4.7 mg
[1]
  Intracellular immunogenicity of mRNA when using different Cap structures: 0.48

## CO[C@@H]1[C@H](O)[C@@H](COP(=O)(O)O[C@H]2[C@@H](OC)[C@H](n3cnc4c(N)ncnc43)O[C@@H]2COP(=O)(O)OP(=O)(O)OP(=O)([O-])OC[C@H]2O[C@@H](n3c[n+](C)c4c(=O)[nH]c(N)nc43)[C@H](O)[C@@H]2O)O[C@H]1n1ccc(=O)[nH]c1=O [Cap analog 13, m7G(5′)ppp(5′)(2′OMeA)p(2′OMeU)]
mRNA
  mRNA capping rates when using different Cap structures: 94.77%
T7 Enzyme Mix
  Mass of final product obtained from 1 ml mRNA synthesis reaction system: 5.1 mg
[1]
  Intracellular immunogenicity of mRNA when using different Cap structures: 0.23

## CO[C@@H]1[C@H](O)[C@@H](COP(=O)(O)O[C@H]2[C@@H](OC)[C@H](n3cnc4c(N)ncnc43)O[C@@H]2COP(=O)(O)OP(=O)(O)OP(=O)([O-])OC[C@H]2O[C@@H](n3c[n+](C)c4c(=O)[nH]c(N)nc43)[C@H](O)[C@@H]2OC)O[C@H]1n1cnc2c(N)ncnc21 [Cap analog 21, 3-O-Me-m7G(5′)ppp(5′)(2′OMeA)p(2′OMeA)]
mRNA
  mRNA capping rates when using different Cap structures: 94.55%
T7 Enzyme Mix
  Mass of final product obtained from 1 ml mRNA synthesis reaction system: 4.8 mg
[1]
  Intracellular immunogenicity of mRNA when using different Cap structures: 0.15
